Test results reported in US20090030024A1, “THIAZOLES AS FUNGICIDES” (priority 2005, published 2009).

Test: logP determination by retention times (calibration with alkan-2-ones)
Details: * HPLC reversed-phase C18, 40° C., mobile phase 0.1% aqueous formic acid and acetonitrile, linear gradient 10% to 95% acetonitrile

Compound	logP
CNc1nc(C)c(-c2ccnc(Nc3cccc(CNC(=O)OC(C)(C)C)c3)n2)s1 [Example 658, tert-butyl-[3-({4-[4-methyl-2-(methylamine)-1,3-thiazol-5-yl]pyrimidin-2-yl}amino)benzyl]carbamate]	1.99*
CNc1nc(C)c(-c2ccnc(Nc3cccc(NC(C)=O)c3)n2)s1 [Example 684, N-[3-({4-[4-methyl-2-(methylamine)-1,3-thiazol-5-yl]pyrimidin-2-yl}amino)phenyl]acetamide]	1.26*
CC(=O)c1cccc(Nc2nccc(-c3sc(N(C)C)nc3C)n2)c1 [Example 685, 1-[3-({4-[2-(dimethylamine)-4-methyl-1,3-thiazol-5-yl]pyrimidin-2-yl}amino)phenyl]ethanone]	1.89*
Cc1nc(N(C)C)sc1-c1ccnc(Nc2cccc([N+](=O)[O-])c2)n1 [Example 686, 4-[2-(dimethylamine)-4-methyl-1,3-thiazol-5-yl]-N-(3-nitrophenyl)pyrimidine-2-amine]	2.34*
Cc1nc(N(C)C)sc1-c1ccnc(Nc2cccc(Cl)c2)n1 [Example 687, N-(3-chlorophenyl)-4-[2-(dimethylamine)-4-methyl-1,3-thiazol-5-yl]pyrimidine-2-amine]	2.62*
Cc1nc(N(C)C)sc1-c1ccnc(Nc2ccccc2)n1 [Example 688, 4-[2-(dimethylamine)-4-methyl-1,3-thiazol-5-yl]-N-phenylpyrimidine-2-amine]	1.98*
Cc1cc(Nc2nccc(-c3sc(N(C)C)nc3C(F)(F)F)n2)ccc1F [Example 692, 4-[2-(dimethylamine)-4-(trifluoromethyl)-1,3-thiazol-5-yl]-N-(4-fluoro-3-methylphenyl)pyrimidine-2-amine]	4.43*
COC(=O)Nc1ccc(Nc2nccc(-c3sc(N(C)C)nc3C(F)(F)F)n2)cc1 [Example 694, methyl-[4-({4-[2-(dimethylamine)-4-(trifluoromethyl)-1,3-thiazol-5-yl]pyrimidin-2-yl}amino)phenyl]carbamate]	3.04*
CN(C)c1nc(C(F)(F)F)c(-c2ccnc(Nc3cccc(Cl)c3)n2)s1 [Example 695, N-(3-chlorophenyl)-4-[2-(dimethylamine)-4-(trifluoromethyl)-1,3-thiazol-5-yl]pyrimidine-2-amine]	4.51*
CN(C)c1nc(C(F)(F)F)c(-c2ccnc(Nc3ccc(O)cc3)n2)s1 [Example 697, 4-({4-[2-(dimethylamine)-4-(trifluoromethyl)-1,3-thiazol-5-yl]pyrimidin-2-yl}amino)phenol]	2.64*
CC(=O)Nc1ccc(Nc2nccc(-c3sc(N(C)C)nc3C(F)(F)F)n2)cc1 [Example 699, N-[4-({4-[2-(dimethylamine)-4-(trifluoromethyl)-1,3-thiazol-5-yl]pyrimidin-2-yl}amino)phenyl]acetamide]	2.58*
CN(C)c1nc(C(F)(F)F)c(-c2ccnc(Nc3ccc(N(C)C)c(Cl)c3)n2)s1 [Example 701, 2-chloro-N4-{4-[2-(dimethylamine)-4-(trifluoromethyl)-1,3-thiazol-5-yl]pyrimidin-2-yl}-N1,N1-dimethylbenzene-1,4-diamine]	3.46*

Same assay, conditions: logP, * HPLC reversed-phase C18, 40° C., mobile phase 0.1% aqueous formic acid and acetonitrile, linear gradient 10% to 95% acetonitrile

Compound	chromatographic logP
COCc1nc(C)c(-c2ccnc(Nc3cccc(CNC(=O)OC(C)(C)C)c3)n2)s1 [Example 639, tert-butyl-[3-({4-[2-(methoxymethyl)-4-methyl-1,3-thiazol-5-yl]pyrimidin-2-yl}amino)benzyl]carbamate]	2.94
COCc1nc(C)c(-c2ccnc(Nc3ccc(CNC(=O)OC(C)(C)C)cc3)n2)s1 [Example 643, tert-butyl-[4-({4-[2-(methoxymethyl)-4-methyl-1,3-thiazol-5-yl]pyrimidin-2-yl}amino)benzyl]carbamate]	2.99
COC(=O)Nc1ccc(Nc2nccc(-c3sc(N)nc3C)n2)cc1 [Example 656, methyl-(4-{[4-(2-amino-4-methyl-1,3-thiazol-5-yl)pyrimidin-2-yl]amino}phenyl)carbamate]	1.31
COCC(C)Nc1nc(C)c(-c2ccnc(Nc3ccc(NS(C)(=O)=O)cc3)n2)s1 (centres unmarked) [Example 657, N-{4-[(4-{2-[(2-methoxy-1-methylethyl)amino]-4-methyl-1,3-thiazol-5-yl}pyrimidin-2-yl)amino]phenyl}methanesulphonamide]	1.53
CC(=O)c1cccc(N(C(C)=O)c2nccc(-c3sc(C4CC4)nc3C)n2)c1 [Example 665, N-(3-acetylphenyl)-N-[4-(2-cyclopropyl-4-methyl-1,3-thiazol-5-yl)pyrimidin-2-yl]acetamide]	2.43
COc1cc(N(C(C)=O)c2nccc(-c3sc(C(C)C)nc3C)n2)cc(OC)c1OC [Example 666, N-[4-(2-isopropyl-4-methyl-1,3-thiazol-5-yl)pyrimidin-2-yl]-N-(3,4,5-trimethoxyphenyl)acetamide]	2.53
COc1cc(N(C(C)=O)c2nccc(-c3sc(C)nc3C)n2)cc(OC)c1OC [Example 667, N-[4-(2,4-dimethyl-1,3-thiazol-5-yl)pyrimidin-2-yl]-N-(3,4,5-trimethoxyphenyl)acetamide]	1.9
CCc1nc(C)c(-c2ccnc(N(C(C)=O)c3ccccc3)n2)s1 [Example 668, N-[4-(2-ethyl-4-methyl-1,3-thiazol-5-yl)pyrimidin-2-yl]-N-phenylacetamide]	2.33
CCc1nc(C)c(-c2ccnc(N(C(C)=O)c3cc(OC)c(OC)c(OC)c3)n2)s1 [Example 669, N-[4-(2-ethyl-4-methyl-1,3-thiazol-5-yl)pyrimidin-2-yl]-N-(3,4,5-trimethoxyphenyl)acetamide]	2.19
CCc1nc(C)c(-c2ccnc(N(C(C)=O)c3cccc(C(C)=O)c3)n2)s1 [Example 671, N-(3-acetylphenyl)-N-[4-(2-ethyl-4-methyl-1,3-thiazol-5-yl)pyrimidin-2-yl]acetamide]	2.23
COC(=O)Nc1ccc(Nc2nccc(-c3sc(C4CC4)nc3C)n2)cc1 [Example 672, methyl-(4-{[4-(2-cyclopropyl-4-methyl-1,3-thiazol-5-yl)pyrimidin-2-yl]amino}phenyl)carbamate]	2.51
Cc1nc(C)c(-c2ccnc(Nc3ccc(N(C)C)c(Cl)c3)n2)s1 [Example 674, 2-chloro-N4-[4-(2,4-dimethyl-1,3-thiazol-5-yl)pyrimidin-2-yl]-N1,N1-dimethylbenzene-1,4-diamine]	2
COCCNc1nc(C)c(-c2ccnc(Nc3ccc(F)cc3)n2)s1 [Example 677, N-(4-fluorophenyl)-4-{2-[(2-methoxyethyl)amino]-4-methyl-1,3-thiazol-5-yl}pyrimidine-2-amine]	1.9
COCCNc1nc(C)c(-c2ccnc(Nc3ccccc3)n2)s1 [Example 678, 4-{2-[(2-methoxyethyl)amino]-4-methyl-1,3-thiazol-5-yl}-N-phenylpyrimidine-2-amine]	1.82
COCCNc1nc(C)c(-c2ccnc(Nc3cc(OC)c(OC)c(OC)c3)n2)s1 [Example 679, 4-{2-[(2-methoxyethyl)amino]-4-methyl-1,3-thiazol-5-yl}-N-(3,4,5-trimethoxyphenyl)pyrimidine-2-amine]	1.74
COCCNc1nc(C)c(-c2ccnc(Nc3cccc(Cl)c3)n2)s1 [Example 680, N-(3-chlorophenyl)-4-{2-[(2-methoxyethyl)amino]-4-methyl-1,3-thiazol-5-yl}pyrimidine-2-amine]	2.28
COCCNc1nc(C)c(-c2ccnc(Nc3cccc(OC)c3)n2)s1 [Example 681, 4-{2-[(2-methoxyethyl)amino]-4-methyl-1,3-thiazol-5-yl}-N-(3-methoxyphenyl)pyrimidine-2-amine]	1.86
COCCNc1nc(C)c(-c2ccnc(Nc3cccc(NC(C)=O)c3)n2)s1 [Example 682, N-{3-[(4-{2-[(2-methoxyethyl)amino]-4-methyl-1,3-thiazol-5-yl}pyrimidin-2-yl)amino]phenyl}acetamide]	1.36
COCCNc1nc(C)c(-c2ccnc(Nc3ccc(NC(C)=O)cc3)n2)s1 [Example 683, N-{4-[(4-{2-[(2-methoxyethyl)amino]-4-methyl-1,3-thiazol-5-yl}pyrimidin-2-yl)amino]phenyl}acetamide]	1.35
COCCNc1nc(C)c(-c2ccnc(Nc3cccc(C(C)=O)c3)n2)s1 [Example 689, 1-{3-[(4-{2-[(2-methoxyethyl)amino]-4-methyl-1,3-thiazol-5-yl}pyrimidin-2-yl)amino]phenyl}ethanone]	1.69
COCCNc1nc(C)c(-c2ccnc(Nc3cccc(O)c3)n2)s1 [Example 690, 3-[(4-{2-[(2-methoxyethyl)amino]-4-methyl-1,3-thiazol-5-yl}pyrimidin-2-yl)amino]phenol]	1.38
COCCNc1nc(C)c(-c2ccnc(Nc3ccc(NS(C)(=O)=O)cc3)n2)s1 [Example 691, N-{4-[(4-{2-[(2-methoxyethyl)amino]-4-methyl-1,3-thiazol-5-yl}pyrimidin-2-yl)amino]phenyl}methanesulphonamide]	1.39
COC(=O)Nc1ccc(Nc2nccc(-c3sc(C)nc3C(F)(F)F)n2)cc1 [Example 693, methyl-[4-({4-[2-methyl-4-(trifluoromethyl)-1,3-thiazol-5-yl]pyrimidin-2-yl}amino)phenyl]carbamate]	2.7
Cc1nc(C(F)(F)F)c(-c2ccnc(Nc3ccc(O)cc3)n2)s1 [Example 696, 4-({4-[2-methyl-4-(trifluoromethyl)-1,3-thiazol-5-yl]pyrimidin-2-yl}amino)phenol]	2.39
CC(=O)Nc1ccc(Nc2nccc(-c3sc(C)nc3C(F)(F)F)n2)cc1 [Example 698, N-[4-({4-[2-methyl-4-(trifluoromethyl)-1,3-thiazol-5-yl]pyrimidin-2-yl}amino)phenyl]acetamide]	2.26
Cc1nc(C(F)(F)F)c(-c2ccnc(Nc3ccc(N(C)C)c(Cl)c3)n2)s1 [Example 700, 2-chloro-N1,N1-dimethyl-N4-{4-[2-methyl-4-(trifluoromethyl)-1,3-thiazol-5-yl]pyrimidin-2-yl}benzene-1,4-diamine]	2.88
